Assay results published in the NIST ThermoML archive (doi:10.1016/j.jct.2009.06.020).

Legend:
[1] = for speed of sound / mass density / viscosity: 101.33 kPa, Liquid; for speed of sound: Single path-length method; for mass density: Vibrating tube method; for viscosity: Capillary tube (Ostwald / Ubbelohde) method
[2] = isobaric coefficient of expansion; settings: 298.15 K; 101.33 kPa; Liquid; Curve Fitting Density Data
[3] = refractive index (Na D-line) (dimensionless); settings: 101.33 kPa, Liquid, Standard Abbe refractometry

CCCC[N+]1(C)CCCC1.O=S(=O)([N-]S(=O)(=O)C(F)(F)F)C(F)(F)F
Settings	mass density, [1] [kg/m3]	refractive index, [3]	speed of sound, [1] [m/s]	viscosity, [1] [mPa·s]
278.15 K	1412.36	–	1316	–
283.15 K	1407.86	1.42717	1303	–
288.15 K	1403.45	1.42573	1291	–
293.15 K	1399.02	1.4243	1280	98.07
298.15 K	1394.59	1.42304	1269	76.92
303.15 K	1390.2	1.42164	1258	61.47
308.15 K	1385.8	1.42021	1247	49.94
313.15 K	1381.42	1.41878	1236	41.22
318.15 K	1377.04	1.41736	1225	34.32
323.15 K	1372.69	1.41588	1214	28.95
328.15 K	1368.35	1.41447	1204	24.68
333.15 K	1364.02	1.413	1193	21.23
338.15 K	1359.71	1.4116	1183	18.42
343.15 K	1355.41	1.4102	1173	16.12

Settings	Normal melting temperature [°C]
[1], Crystal, visual observation	-8.00

Settings	isobaric coefficient of expansion
[2]	0.000633 1/K

CCCCCCCCCCCCCC[P+](CCCCCC)(CCCCCC)CCCCCC.N#C[N-]C#N [tetradecyl(trihexyl)phosphonium dicyanamide]
Settings	mass density, [1] [kg/m3]	refractive index, [3]	speed of sound, [1] [m/s]	viscosity, [1] [mPa·s]
278.15 K	910.72	–	1599	–
283.15 K	907.58	1.48826	1579	–
288.15 K	904.66	1.48667	1561	–
293.15 K	901.76	1.48502	1542	562.45
298.15 K	898.86	1.48337	1526	418.33
303.15 K	895.98	1.48174	1509	312.69
308.15 K	893.09	1.48008	1493	239.97
313.15 K	890.26	1.47843	1477	186.79
318.15 K	887.46	1.47679	1462	145.95
323.15 K	884.65	1.47516	1447	116.18
328.15 K	881.83	1.47352	1432	93.8
333.15 K	879.03	1.47189	1418	76.14
338.15 K	876.22	1.47024	1404	62.63
343.15 K	873.42	1.46848	1390	51.99

Settings	isobaric coefficient of expansion
[2]	0.000642 1/K
